pEC50: −log10 of the molar value. Starred links: 1 amine or outer side, 2 acyl side, 3 side chain; linkers in the order of their positions; H or OH if unused. Non-standard residues stand in square brackets, D forms with d. Residues, ends and D or L forms follow the SMILES beside them. Groups on a side chain read outwards from the residue. *: point of attachment. X2 = CCCCCCCCCCCCCCCC(=O)N[C@@H](CCC(=O)N[C@@H](CCC(=O)N[C@@H](CCC(=O)NCCCOCCOCCOCCCNC(=O)CCC(=O)NCCCOCCOCCOCCCNC(=O)CCC(=O)NCCCOCCOCCOCCCN*)C(=O)O)C(=O)O)C(=O)O; γGlu = O=C(O)[C@H](CCC(=O)[*:2])N[*:1]; Palmitoyl = CCCCCCCCCCCCCCCC(=O)*; Suc = O=C(CCC(=O)[*:2])[*:1]; αMeK = C[C@](N)(CCCCN)C(=O)O; Nle = CCCC[C@H](N)C(=O)O; AEEA = NCCOCCOCC(=O)O; Aib = CC(C)(N)C(=O)O
Assays:
[1] = molecular target: T1, Relaxin receptor 1 (Homo sapiens, UniProt Q9HBX9); test: Agonist activity at human RXFP1 expressed in human OVCAR-5 cells assessed as intracellular cAMP accumulation incubated for 30 mins by HTRF assay; type: functional, cell-based
T1 sequence (Q9HBX9 whole entry): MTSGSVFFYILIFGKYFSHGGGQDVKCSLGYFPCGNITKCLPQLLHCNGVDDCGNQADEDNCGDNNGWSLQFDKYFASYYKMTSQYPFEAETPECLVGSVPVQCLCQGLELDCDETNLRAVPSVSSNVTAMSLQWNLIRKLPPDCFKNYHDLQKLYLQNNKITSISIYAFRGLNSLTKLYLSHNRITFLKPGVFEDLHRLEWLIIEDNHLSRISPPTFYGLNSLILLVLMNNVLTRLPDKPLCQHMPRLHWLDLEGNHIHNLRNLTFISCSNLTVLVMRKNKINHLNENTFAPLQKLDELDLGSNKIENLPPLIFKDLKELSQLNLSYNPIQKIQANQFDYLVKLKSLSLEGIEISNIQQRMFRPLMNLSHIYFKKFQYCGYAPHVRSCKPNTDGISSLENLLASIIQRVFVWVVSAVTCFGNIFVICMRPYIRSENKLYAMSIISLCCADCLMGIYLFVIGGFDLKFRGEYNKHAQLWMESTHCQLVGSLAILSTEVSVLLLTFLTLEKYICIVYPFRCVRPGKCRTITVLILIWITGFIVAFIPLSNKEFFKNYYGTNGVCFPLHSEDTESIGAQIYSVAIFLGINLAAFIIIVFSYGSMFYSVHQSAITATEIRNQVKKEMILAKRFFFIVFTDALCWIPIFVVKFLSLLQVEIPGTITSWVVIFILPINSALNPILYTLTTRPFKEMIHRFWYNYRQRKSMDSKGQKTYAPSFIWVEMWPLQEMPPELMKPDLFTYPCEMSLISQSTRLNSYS

[2] = molecular target: T2, Relaxin receptor 1 (Homo sapiens) (UniProt Q9HBX9); test: Agonist activity at human RXFP1 expressed in human OVCAR-5 cells assessed as intracellular cAMP accumulation by measuring maximal efficacy incubated for 30 mins by HTRF assay relative to control; type: functional, cell-based; conditions: filed as agonist
T2 sequence (whole entry): T1 sequence (Q9HBX9 whole entry)

[3] = molecular target: T1, Relaxin receptor 1; test: Agonist activity at human RXFP1 expressed in 2%HSA treated human OVCAR-5 cells assessed as intracellular cAMP accumulation incubated for 30 mins with 2% HSA pretreated compound by HTRF assay; type: functional, cell-based
[4] = Induction of mast cell degranulation in human LAD2 cells assessed as beta-hexosaminidase release by measuring 4-methylumbelliferyl N-acetyl-beta-D-glucosaminide hydrolysis incubated for 30 mins by plate reader analysis; type: toxicity, cell-based; conditions: probe 4-methylumbelliferyl N-acetyl-beta-D-glucosaminide
[5] = Induction of mast cell degranulation in human LAD2 cells assessed as beta-hexosaminidase release by measuring maximal efficacy of 4-methylumbelliferyl N-acetyl-beta-D-glucosaminide hydrolysis at 100 uM incubated for 30 mins by plate reader analysis relative to control; type: toxicity, cell-based; conditions: probe 4-methylumbelliferyl N-acetyl-beta-D-glucosaminide
[6] = molecular target: T2, Relaxin receptor 1 (Homo sapiens); test: Agonist activity at human RXFP1 expressed in 2%HSA treated human OVCAR-5 cells assessed as intracellular cAMP accumulation by measuring maximal efficacy incubated for 30 mins with 2% HSA pretreated compound by HTRF assay relative to control; type: functional, cell-based; conditions: filed as agonist
[7] = Induction of mast cell degranulation in human LAD2 cells assessed as beta-hexosaminidase release by measuring maximal efficacy of 4-methylumbelliferyl N-acetyl-beta-D-glucosaminide hydrolysis at 33 uM incubated for 30 mins by plate reader analysis relative to control; type: toxicity, cell-based; conditions: probe 4-methylumbelliferyl N-acetyl-beta-D-glucosaminide
[8] = Half-life in male Sprague-Dawley rat at 1 mg/kg, iv measured after 198 hrs by LC-HRMS analysis; type: ADME, organism-based; conditions: in vivo

| Compound | pEC50 [1] | Emax [2] | pEC50 [3] | EC50 at 30 min [4] | Emax at 0.5 h, 100 µM [5] | Emax [6] | Emax at 0.5 h, 33 µM [7] | half-life [8] |
| --- | --- | --- | --- | --- | --- | --- | --- | --- |
| CCCCCCCCCCCCCCCC(=O)N[C@@H](CCC(=O)N[C@@H](CCC(=O)N[C@@H](CCC(=O)NCCCOCCOCCOCCCNC(=O)CCC(=O)NCCCOCCOCCOCCCNC(=O)CCC(=O)NCCCOCCOCCOCCCNC(=O)CCC(=O)NCCCC[C@H](NC(=O)[C@H](CCC(N)=O)NC(=O)CNC(=O)[C@H](CCC(=O)O)NC(=O)C(C)(C)NC(=O)C(C)(C)NC(=O)[C@@H](NC(=O)[C@H](CCCCNC(C)=O)NC(=O)[C@H](C)NC(=O)[C@H](CCCNC(=N)N)NC(=O)[C@@H](NC(=O)[C@H](CCCCN)NC(=O)[C@H](CCC(=O)O)NC(=O)[C@H](CCCNC(=N)N)NC(=O)CNC(=O)[C@H](CCC(=O)O)NC(=O)[C@H](CC(C)C)NC(C)=O)C(C)C)[C@@H](C)CC)C(=O)N[C@H](C(=O)N[C@@H](Cc1c[nH]c2ccccc12)C(=O)N[C@@H](CO)C(=O)NC(C)(C)C(=O)N[C@@H](CCCNC(=N)N)C(=O)N[C@@H](CCCCN)C(=O)N[C@@H](CCCCNC(C)=O)C(N)=O)[C@@H](C)O)C(=O)O)C(=O)O)C(=O)O (Ac-LEGREKVRAK(Ac)I[Aib][Aib]EGQK([Suc-X2])TWS[Aib]RKK(Ac)-NH2) | 7.60 | 90% | < 5.70 | 12800 nM | 32% |  |  |  |
| CCCCCCCCCCCCCCCC(=O)N[C@@H](CCC(=O)N[C@@H](CCC(=O)N[C@@H](CCC(=O)NCCCOCCOCCOCCCNC(=O)CCC(=O)NCCCOCCOCCOCCCNC(=O)CCC(=O)NCCCOCCOCCOCCCNC(=O)CCC(=O)NCCCC[C@H](NC(=O)[C@@H](NC(=O)[C@H](CCCCNC(C)=O)NC(=O)[C@H](C)NC(=O)[C@H](CCCNC(=N)N)NC(=O)[C@@H](NC(=O)[C@H](CCCCN)NC(=O)[C@H](CCC(=O)O)NC(=O)[C@H](CCCNC(=N)N)NC(=O)CNC(=O)[C@H](CCC(=O)O)NC(=O)[C@H](CC(C)C)NC(C)=O)C(C)C)[C@@H](C)CC)C(=O)NC(C)(C)C(=O)N[C@@H](CCC(=O)O)C(=O)NCC(=O)N[C@@H](CCC(N)=O)C(=O)N[C@@H](CO)C(=O)N[C@H](C(=O)N[C@@H](Cc1c[nH]c2ccccc12)C(=O)N[C@@H](CO)C(=O)NC(C)(C)C(=O)N[C@@H](CCCNC(=N)N)C(=O)N[C@@H](CCCCN)C(=O)N[C@@H](CCCCNC(C)=O)C(N)=O)[C@@H](C)O)C(=O)O)C(=O)O)C(=O)O (Ac-LEGREKVRAK(Ac)IK([Suc-X2])[Aib]EGQSTWS[Aib]RKK(Ac)-NH2) | 9.68 | 87% | 7.10 | 13600 nM | 11% | 90% |  |  |
| CCCCCCCCCCCCCCCC(=O)N[C@H](CCC(=O)N[C@H](CCC(=O)N[C@H](CCC(=O)NCCCOCCOCCOCCCNC(=O)CCC(=O)NCCCOCCOCCOCCCNC(=O)CCC(=O)NCCCOCCOCCOCCCNC(=O)CCC(=O)NCCCC[C@H](NC(=O)[C@H](CO)NC(=O)[C@H](Cc1c[nH]c2ccccc12)NC(=O)[C@@H](NC(=O)[C@H](CO)NC(=O)[C@H](CCC(N)=O)NC(=O)CNC(=O)[C@H](CCC(=O)O)NC(=O)C(C)(C)NC(=O)C(C)(C)NC(=O)[C@@H](NC(=O)[C@H](CCCCNC(C)=O)NC(=O)[C@H](C)NC(=O)[C@H](CCCNC(=N)N)NC(=O)[C@@H](NC(=O)[C@H](CCCCN)NC(=O)[C@H](CCC(=O)O)NC(=O)[C@H](CCCNC(=N)N)NC(=O)CNC(=O)[C@H](CCC(=O)O)NC(=O)[C@H](CC(C)C)NC(C)=O)C(C)C)[C@@H](C)CC)[C@H](C)O)C(=O)N[C@@H](CCCNC(=N)N)C(=O)N[C@@H](CCCCN)C(=O)N[C@@H](CCCCNC(C)=O)C(N)=O)C(=O)O)C(=O)O)C(=O)O | 9.42 | 94% | 7.05 | 13400 nM | 24% | 92% |  |  |
| CCCCCCCCCCCCCCCC(=O)N[C@@H](CCC(=O)N[C@@H](CCC(=O)N[C@@H](CCC(=O)NCCCOCCOCCOCCCNC(=O)CCC(=O)NCCCOCCOCCOCCCNC(=O)CCC(=O)NCCCOCCOCCOCCCNC(=O)CCC(=O)NCCCC[C@H](NC(=O)CNC(=O)[C@H](CCC(=O)O)NC(=O)C(C)(C)NC(=O)C(C)(C)NC(=O)[C@@H](NC(=O)[C@H](CCCCNC(C)=O)NC(=O)[C@H](C)NC(=O)[C@H](CCCNC(=N)N)NC(=O)[C@@H](NC(=O)[C@H](CCCCN)NC(=O)[C@H](CCC(=O)O)NC(=O)[C@H](CCCNC(=N)N)NC(=O)CNC(=O)[C@H](CCC(=O)O)NC(=O)[C@H](CC(C)C)NC(C)=O)C(C)C)[C@@H](C)CC)C(=O)N[C@@H](CO)C(=O)N[C@H](C(=O)N[C@@H](Cc1c[nH]c2ccccc12)C(=O)N[C@@H](CO)C(=O)NC(C)(C)C(=O)N[C@@H](CCCNC(=N)N)C(=O)N[C@@H](CCCCN)C(=O)N[C@@H](CCCCNC(C)=O)C(N)=O)[C@@H](C)O)C(=O)O)C(=O)O)C(=O)O (Ac-LEGREKVRAK(Ac)I[Aib][Aib]EGK([Suc-X2])STWS[Aib]RKK(Ac)-NH2) | 8.87 | 98% | 6.98 | 5900 nM |  | 90% | 67.5% |  |
| CCCCCCCCCCCCCCCC(=O)N[C@@H](CCC(=O)N[C@@H](CCC(=O)N[C@@H](CCC(=O)NCCOCCOCC(=O)NCCOCCOCC(=O)NCCOCCOCC(=O)NCCOCCOCC(=O)NCCCC[C@H](NC(=O)[C@H](CCCCNC(C)=O)NC(=O)[C@H](C)NC(=O)[C@H](CCCNC(=N)N)NC(=O)[C@](C)(CCCCN)NC(=O)[C@H](CO)NC(=O)[C@H](Cc1ccccc1)NC(=O)[C@@H](NC(=O)[C@H](CO)NC(=O)[C@H](CCCC)NC(=O)CNC(=O)[C@H](CCC(=O)O)NC(=O)C(C)(C)NC(=O)C(C)(C)NC(=O)[C@@H](NC(=O)[C@H](CCCCNC(C)=O)NC(=O)[C@H](C)NC(=O)[C@H](CCCNC(=N)N)NC(=O)[C@@H](NC(=O)[C@H](CCCCN)NC(=O)[C@H](CCC(=O)O)NC(=O)[C@H](CCCNC(=N)N)NC(=O)CNC(=O)[C@H](CCC(=O)O)NC(=O)[C@H](CC(C)C)NC(C)=O)C(C)C)[C@@H](C)CC)[C@@H](C)O)C(N)=O)C(=O)O)C(=O)O)C(=O)O (Ac-LEGREKVRAK(Ac)I[Aib][Aib]EG[Nle]STFS[αMeK]RAK(Ac)K([AEEA-AEEA-AEEA-AEEA-γGlu-γGlu-γGlu-Palmitoyl])-NH2) | 9.57 | 89% | 7.70 | 3000 nM |  | 96% | 58% | 7.3 h |
| CCCCCCCCCCCCCCCC(=O)N[C@@H](CCC(=O)N[C@@H](CCC(=O)N[C@@H](CCC(=O)NCCCOCCOCCOCCCNC(=O)CCC(=O)NCCCOCCOCCOCCCNC(=O)CCC(=O)NCCCOCCOCCOCCCNC(=O)CCC(=O)NCCCC[C@H](NC(=O)[C@H](C)NC(=O)[C@H](CCCNC(=N)N)NC(=O)[C@@H](NC(=O)[C@H](CCCCN)NC(=O)[C@H](CCC(=O)O)NC(=O)[C@H](CCCNC(=N)N)NC(=O)CNC(=O)[C@H](CCC(=O)O)NC(=O)[C@H](CC(C)C)NC(C)=O)C(C)C)C(=O)N[C@H](C(=O)NC(C)(C)C(=O)NC(C)(C)C(=O)N[C@@H](CCC(=O)O)C(=O)NCC(=O)N[C@@H](CCC(N)=O)C(=O)N[C@@H](CO)C(=O)N[C@H](C(=O)N[C@@H](Cc1c[nH]c2ccccc12)C(=O)N[C@@H](CO)C(=O)NC(C)(C)C(=O)N[C@@H](CCCNC(=N)N)C(=O)N[C@@H](CCCCN)C(=O)N[C@@H](CCCCNC(C)=O)C(N)=O)[C@@H](C)O)[C@@H](C)CC)C(=O)O)C(=O)O)C(=O)O (Ac-LEGREKVRAK([Suc-X2])I[Aib][Aib]EGQSTWS[Aib]RKK(Ac)-NH2) | 9.21 | 95% | 7.16 | 12500 nM | 40% | 90% |  |  |
